Source: publication PMC9894226 (Proceedings of the National Academy of Sciences of the …, 2022)
Non-standard residues stand in square brackets, D forms with d. Residues, ends and D or L forms follow the SMILES beside them. Nle = CCCC[C@H](N)C(=O)O

How the values were obtained:
[1] = pH 7.4; ref [67]; cited from earlier work
C. elegans CL2355 = test: Chemotaxis assay in transgenic C. elegans; format: in vivo, Caenorhabditis elegans; settings: fed 0.5, 5 and 50 μM; untreated CL2355 0.18 ± 0.01, CL2122 0.29 ± 0.01
5xFAD mice = test: PET/CT imaging in 5xFAD mice; format: in vivo, mouse; settings: 6-mo-old 5xFAD mice, 1 h post injection

Molecule	Chemotaxis index (CI) of CL2355 mutants (C. elegans CL2355)	also measured
O=C(O)CN1CCN(CC(=O)O)CCN(CC(=O)O)CC1 [NOTA, 2,2′,2”-(1,4,7-triazacyclononane-1,4,7-triyl)triacetic acid]	–	Thermodynamic stability constant of Cu^2+ complex (log KML) [1]: 23.33
H-[dL][Nle][dW]H[dS]K-OH [Lin-1]	significantly less protective than peptide 1	–
[11CH3]Nc1ccc(-c2nc3ccc(O)cc3s2)cc1 [^11C-PIB, ^11C-Pittsburgh compound B]	–	Hippocampal uptake (PET) (5xFAD mice): 1.038 ± 0.028 %ID/g
CCCC[C@@H]1NC(=O)[C@@H](CC(C)C)NC(=O)[C@H](CCCCN)NC(=O)[C@@H](CO)NC(=O)[C@H](Cc2c[nH]cn2)NC(=O)[C@@H](C)NC1=O [[w4a]-1, c-(D-Leu-Nle-D-Ala-His-D-Ser-Lys)] (cyclo(H[dS]K[dL][Nle][dA]))	significantly less protective than peptide 1	–
